This assay has as its target T1, NapT8 (Streptomyces sp. CNQ-525, UniProt A7KH30).
T1 sequence (A7KH30 1-297): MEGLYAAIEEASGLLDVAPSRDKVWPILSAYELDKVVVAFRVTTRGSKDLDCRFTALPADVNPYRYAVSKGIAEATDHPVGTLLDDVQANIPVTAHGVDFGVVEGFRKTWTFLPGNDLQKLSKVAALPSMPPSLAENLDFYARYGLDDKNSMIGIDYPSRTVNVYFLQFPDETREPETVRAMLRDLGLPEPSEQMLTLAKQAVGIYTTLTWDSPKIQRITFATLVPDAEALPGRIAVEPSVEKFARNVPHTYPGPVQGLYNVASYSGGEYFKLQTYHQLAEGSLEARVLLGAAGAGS
The assay is described as follows: reversed-phase HPLC turnover assay. The class given is biochemical. As to conditions: 34 as prenyl acceptor; MgCl2.

On to `CC(C)=CCOP(=O)(O)OP(=O)(O)O` [dimethylallyl pyrophosphate], for which the “reversed-phase HPLC turnover assay” value is on record as “NapT8 was only active when the isoprenoid DMAPP was utilized”.

The values above are taken from article PMC5960991 (Nature chemistry, 2017).
